In ChEMBL document CHEMBL5036301, “Heteroaryl ether analogues of an antileishmanial 7-substituted 2-nitroimidazooxazine lead afford attenuated hERG risk: In vitro and in vivo appraisal” (Eur J Med Chem, 2021):
In brackets after ≈: the same amount, converted by molar mass.

What was measured:
[1] = system: Mycobacterium tuberculosis; assay: Antitubercular activity against Mycobacterium tuberculosis H37Rv assessed as reduction in microbial growth under anaerobic condition by luminescence analysis; format: functional
[2] = system: Mycobacterium tuberculosis; assay: Antitubercular activity against Mycobacterium tuberculosis H37Rv assessed as reduction in microbial growth under aerobic condition by luminescence analysis; format: functional
Trypanosoma cruzi = assay: Antitrypanosomal activity against Trypanosoma cruzi Tulahuen CL2 infected in human MRC-5 cells assessed as parasite growth; format: functional, organism-based; details: Tulahuen CL2, MRC5
Leishmania donovani [3] = assay: Antileishmanial activity against Leishmania donovani amastigotes infected in mouse J774A.1 cells incubated for 72 hrs by luciferase assay; format: functional, organism-based; details: J774.A1, 72 h
Leishmania infantum = assay: Antileishmanial activity against Leishmania infantum MHOM/MA(BE)/67 amastigotes infected in macrophages assessed as reduction in parasite burden by giemsa staining based microscopic analysis; format: functional, organism-based
MRC5 = assay: Cytotoxicity against human MRC5 cells assessed as cell viability after 72 hrs by fluorimetric analysis; format: ADME, cell-based; details: MRC5, 72 h
[4] = Selectivity index, ratio IC50 for cytotoxicity against human MRC5 cells to IC50 for antileishmanial activity against Leishmania infantum MHOM/MA(BE)/67 amastigotes infected in macrophages
hERG (KCNH2) = hERG (KCNH2) (Homo sapiens, UniProt Q12809); assay: Inhibition of human ERG expressed in HEK293 cells at 10 uM relative to control; format: cell-based; details: HEK293 cells expressing human ERG
[5] = Kinetic solubility of compound in water at pH7 by HPLC analysis; details: pH 7
[6] = AUClast in mouse at 1 mg/kg, iv measured upto 24 hrs LC-MS/MS analysis; details: in vivo
[7] = Initial plasma concentration in mouse at 1 mg/kg, iv measured upto 24 hrs LC-MS/MS analysis
Leishmania donovani [8] = assay: Antileishmanial activity against Leishmania donovani amastigotes infected in BALB/C mouse assessed as reduction in parasite burden in liver tissue at 50 mg/kg, po administered once per day for 5 days relative to control; format: functional; details: 120 h, time 5 day
in vivo [9] = details: mouse, po, 25 mg/kg
in vivo [10] = details: mouse, po, 25 mg/kg; remark: listed apart in the source
[11] = Half life in mouse at 1 mg/kg, iv measured upto 24 hrs LC-MS/MS analysis; details: in vivo
[12] = Clearance in mouse at 1 mg/kg, iv measured upto 24 hrs LC-MS/MS analysis; details: in vivo
[13] = Volume of distribution at steady state in mouse at 1 mg/kg, iv measured upto 24 hrs LC-MS/MS analysis; details: in vivo
in vivo [14] = details: mouse, po, 25 mg/kg; remark: listed apart in the source
[15] = AUClast in mouse at 25 mg/kg, po measured upto 24 hrs LC-MS/MS analysis; details: in vivo

hERG (KCNH2), sequence (Q12809 whole entry): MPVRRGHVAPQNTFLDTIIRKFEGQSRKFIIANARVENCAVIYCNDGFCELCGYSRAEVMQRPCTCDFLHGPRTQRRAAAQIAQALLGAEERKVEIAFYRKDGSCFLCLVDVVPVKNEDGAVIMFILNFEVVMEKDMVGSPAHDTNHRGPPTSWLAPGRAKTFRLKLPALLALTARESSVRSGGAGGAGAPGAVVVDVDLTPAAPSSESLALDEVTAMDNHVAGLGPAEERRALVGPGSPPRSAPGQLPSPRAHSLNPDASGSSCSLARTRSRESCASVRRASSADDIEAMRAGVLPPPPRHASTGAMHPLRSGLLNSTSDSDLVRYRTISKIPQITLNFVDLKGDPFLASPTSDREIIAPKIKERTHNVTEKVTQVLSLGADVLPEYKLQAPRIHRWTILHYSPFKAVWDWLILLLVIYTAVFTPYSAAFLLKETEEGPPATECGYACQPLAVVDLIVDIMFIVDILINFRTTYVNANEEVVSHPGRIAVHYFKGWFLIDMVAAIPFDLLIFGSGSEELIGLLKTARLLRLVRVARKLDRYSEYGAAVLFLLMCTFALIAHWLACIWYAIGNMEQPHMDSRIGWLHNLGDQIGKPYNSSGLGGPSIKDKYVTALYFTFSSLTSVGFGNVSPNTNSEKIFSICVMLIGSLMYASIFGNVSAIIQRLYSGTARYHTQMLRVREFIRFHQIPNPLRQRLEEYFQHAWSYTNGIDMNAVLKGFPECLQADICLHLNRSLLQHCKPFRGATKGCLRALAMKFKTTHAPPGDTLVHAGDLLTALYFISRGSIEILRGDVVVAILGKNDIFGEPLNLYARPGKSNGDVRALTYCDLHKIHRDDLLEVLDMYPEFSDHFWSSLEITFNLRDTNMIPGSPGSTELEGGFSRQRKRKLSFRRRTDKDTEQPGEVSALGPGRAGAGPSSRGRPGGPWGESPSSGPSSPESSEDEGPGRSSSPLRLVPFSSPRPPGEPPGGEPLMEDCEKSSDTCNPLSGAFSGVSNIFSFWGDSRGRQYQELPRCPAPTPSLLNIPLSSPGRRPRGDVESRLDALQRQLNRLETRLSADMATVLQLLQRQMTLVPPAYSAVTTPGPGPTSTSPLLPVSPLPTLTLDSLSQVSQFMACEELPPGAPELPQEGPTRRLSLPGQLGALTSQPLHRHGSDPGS

Row | Compound | MIC [1] [µM] | MIC [2] [µM] | IC50 (Trypanosoma cruzi) [µM] | IC50 (Leishmania donovani [3]) [µM] | IC50 (Leishmania infantum) [µM] | IC50 (MRC5) [µM] | selectivity ratio [4] | inhibition at 10 µM (hERG (KCNH2)) [%] | solubility kinetic [5] [µg/mL] | AUC(0-t) at 24 h [6] [ng·h/mL] | C0 at 24 h [7] [ng/mL] | inhibition in vivo at 50 mg/kg (Leishmania donovani [8]) [%] | Tmax at 24 h (in vivo [9]) [h] | Cmax at 24 h (in vivo [10]) [ng/mL] | half-life at 24 h [11] [h] | clearance at 24 h [12] [mL/min/kg] | Vd at 24 h [13] [L/kg] | bioavailability at 24 h (in vivo [14]) [%] | AUC(0-t) at 24 h [15] [ng·h/mL]
1 | O=[N+]([O-])c1cn2c(n1)OC(COc1ccc(OC(F)(F)F)cc1)CC2 (centres undefined) | 4.7 | 5.2 | 0.061 | 0.04 |  |  |  |  |  |  |  |  |  |  |  |  |  |  | 
2 | CC1(COc2ccc(Cl)cc2)CCn2cc([N+](=O)[O-])nc2O1 (centres undefined) | 7 | 0.86 | 0.18 | 0.05 | 0.13 | > 64 | > 492 |  |  |  |  |  |  |  |  |  |  |  | 
3 | CC1(COc2ccc(F)cc2)CCn2cc([N+](=O)[O-])nc2O1 (centres undefined) | 5 | 1.3 | 0.45 | 0.29 | 0.45 | > 64 | > 142 |  |  |  |  |  |  |  |  |  |  |  | 
4 | O=[N+]([O-])c1cn2c(n1)OC(COc1ccc(Cl)cn1)CC2 (centres undefined) |  |  | 0.94 | 0.1 | > 64 | > 64 |  | 17 | 18 (≈ 57.9 µM) |  |  |  |  |  |  |  |  |  | 
5 | CC1(COc2ncc(F)cn2)CCn2cc([N+](=O)[O-])nc2O1 (centres undefined) |  |  | 14 | 0.67 | > 64 | > 64 |  |  |  |  |  |  |  |  |  |  |  |  | 
6 | O=[N+]([O-])c1cn2c(n1)OC(COc1cccc(C(F)(F)F)n1)CC2 (centres undefined) |  |  | 0.53 |  | > 64 | > 64 |  |  |  |  |  |  |  |  |  |  |  |  | 
7 | CC1(COc2ccc(Cl)cn2)CCn2cc([N+](=O)[O-])nc2O1 (centres undefined) | 8.7 | 2 | 0.63 | 0.15 | 0.38 | > 64 |  |  | 23 (≈ 70.8 µM) | 2010 | 2600 | 14 | 1 | 11000 | 0.65 | 8.3 | 0.5 | 100 | 57800
8 | CC1(COc2ccc(C(F)(F)F)nc2)CCn2cc([N+](=O)[O-])nc2O1 (centres undefined) | 33 | 66 | 0.78 | 0.09 | 1.9 | > 64 |  | 17 | 7.3 (≈ 20.4 µM) | 4000 | 1600 | 42 | 1 | 11000 | 1.5 | 4.1 | 0.46 | 84 | 41800
9 | C[C@]1(COc2ccc(C(F)(F)F)nc2)CCn2cc([N+](=O)[O-])nc2O1 |  |  | 0.9 | 0.44 | 1.3 | > 64 |  |  | 12 (≈ 33.5 µM) | 2520 | 1100 | 72 | 2 | 7300 | 1.3 | 6.6 | 0.91 | 59 | 37200
10 | O=[N+]([O-])c1cn2c(n1)OC(COc1ncc(C(F)(F)F)cn1)CC2 (centres undefined) |  |  | 3.3 |  | > 64 | > 64 |  |  |  |  |  |  |  |  |  |  |  |  | 
11 | CC1(COc2ccc(F)nc2)CCn2cc([N+](=O)[O-])nc2O1 (centres undefined) |  |  | 4.3 | 0.6 | 7.1 | > 64 | > 9 |  |  |  |  |  |  |  |  |  |  |  | 
12 | C[C@@]1(COc2ccc(C(F)(F)F)nc2)CCn2cc([N+](=O)[O-])nc2O1 | > 128 | > 128 | 1.8 | 0.74 | 2.3 | > 64 |  |  | 15 (≈ 41.9 µM) | 2760 | 1900 | 46 | 2 | 8000 | 1.2 | 6 | 0.75 | 54 | 37200
13 | CC1(COc2cc(C(F)(F)F)ccn2)CCn2cc([N+](=O)[O-])nc2O1 (centres undefined) |  |  | 0.86 |  | 0.45 | > 64 | > 142 |  |  |  |  |  |  |  |  |  |  |  | 
14 | CC1(COc2ccc(C(F)(F)F)cc2)CCn2cc([N+](=O)[O-])nc2O1 (centres undefined) | 4.1 | 0.8 | 0.15 | 0.16 | 0.16 | > 64 | > 400 |  |  |  |  |  |  |  |  |  |  |  | 
15 | CC1(COc2ccc(Oc3ccccc3)cc2)CCn2cc([N+](=O)[O-])nc2O1 (centres undefined) | 2.7 | 0.7 | 0.25 | 0.17 | 0.17 | > 64 | > 376 |  |  |  |  |  |  |  |  |  |  |  | 
16 | O=[N+]([O-])c1cn2c(n1)OC(COc1cc(C(F)(F)F)ccn1)CC2 (centres undefined) |  |  | 1 |  | > 64 | > 64 |  |  |  |  |  |  |  |  |  |  |  |  | 
17 | CC1(COc2ccc(F)cn2)CCn2cc([N+](=O)[O-])nc2O1 (centres undefined) | 19 | 2.3 | 3.3 | 0.26 | 1.6 | > 64 | > 40 |  |  |  |  |  |  |  |  |  |  |  | 
18 | CC1(COc2cccc(C(F)(F)F)n2)CCn2cc([N+](=O)[O-])nc2O1 (centres undefined) |  |  | 0.44 |  | 0.58 | > 64 | > 110 |  |  |  |  |  |  |  |  |  |  |  | 
19 | O=[N+]([O-])c1cn2c(n1)OC(COc1ccc(C(F)(F)F)nc1)CC2 (centres undefined) |  |  | 1.1 | 0.11 | > 64 | > 64 |  | 4 | 29 (≈ 84.2 µM) | 3100 | 2300 |  | 0.25 | 5800 | 1.1 | 5.4 | 0.47 | 39 | 15100
20 | CC1(COc2ccc(Cl)nc2)CCn2cc([N+](=O)[O-])nc2O1 (centres undefined) |  |  | 0.93 | 0.86 | 2.8 | > 64 | > 23 |  |  |  |  |  |  |  |  |  |  |  | 
21 | CC1(COc2ncc(Cl)cn2)CCn2cc([N+](=O)[O-])nc2O1 (centres undefined) |  |  | 3.7 | 0.32 | > 64 | > 64 |  |  |  |  |  |  |  |  |  |  |  |  | 
22 | CC1(COc2ccccc2)CCn2cc([N+](=O)[O-])nc2O1 (centres undefined) | 8.1 | 1.3 | 0.59 | 0.3 | 0.52 | > 64 | > 123 |  |  |  |  |  |  |  |  |  |  |  | 
